Reference: patent US10508120B2, “TYK2 inhibitors and uses thereof” (Nimbus Lakshmi, Inc., priority 2017, dated 2019)

Target: human TYK2 (JH2domain-pseudokinase) (Homo sapiens (Human), UniProt P29597)
Experiment: TYK2 JH2 Domain Binding Assay (KINOMEscan)
Protocol: Binding constants for compounds of the present invention against the JH2 domain were determined by the following protocol for a KINOMEscan® assay (DiscoveRx). A fusion protein of a partial length construct of human TYK2 (JH2domain-pseudokinase) (amino acids G556 to D888 based on reference sequence NP_003322.3) and the DNA binding domain of NFkB was expressed in transiently transfected HEK293 cells. From these HEK 293 cells, extracts were prepared in M-PER extraction buffer (Pierce) in the presence of Protease Inhibitor Cocktail Complete (Roche) and Phosphatase Inhibitor Cocktail Set II (Merck) per manufacturers' instructions. The TYK2 (JH2domain-pseudokinase) fusion protein was labeled with a chimeric double-stranded DNA tag containing the NFkB binding site (5′-[…]-3′) fused to an amplicon for qPCR readout, which was added directly to the expression extract (the final concentration of DNA-tag in the binding reaction is 0.1 nM).
The liganded beads were blocked with excess biotin and washed with blocking buffer (SeaBlock (Pierce), 1% BSA, 0.05% Tween 20, 1 mM DTT) to remove unbound ligand and to reduce nonspecific binding.
Extracts were used directly in binding assays without any enzyme purification steps at a ≥10,000-fold overall stock dilution (final DNA-tagged enzyme concentration <0.1 nM). Extracts were loaded with DNA-tag and diluted into the binding reaction in a two step process. First extracts were diluted 1:100 in 1× binding buffer (PBS/0.05% Tween 20/10 mM DTT/0.1% BSA/2 μg/ml sonicated salmon sperm DNA) containing 10 nM DNA-tag. This dilution was allowed to equilibrate at room temperature for 15 minutes and then subsequently diluted 1:100 in 1× binding buffer. […] Kds were determined using an 11-point 3-fold compound dilution series with three DMSO control points. […] The compounds were then diluted directly into the assays such that the final concentration of DMSO was 0.9%. All reactions performed in polypropylene 384-well plates. Each was a final volume of 0.02 mL. Assays were incubated with shaking for 1 hour at room temperature. Then the beads were pelleted and washed with wash buffer (1×PBS, 0.05% Tween 20) to remove displaced kinase and test compound. […] The qPCR protocol consisted of a 10 minute hot start at 95° C., followed by 35 cycles of 95° C. for 15 seconds, 60° C. for 1 minute.
Kds were determined using an 11-point 3-fold compound dilution series with three DMSO control points. […] The compounds were then diluted directly into the assays such that the final concentration of DMSO was 0.9%. The Kds were determined using a compound top concentration of 30,000 nM. Kd measurements were performed in duplicate.
Binding constants (Kds) were calculated with a standard dose-response curve using the Hill equation: […]
The Hill Slope was set to −1.

human TYK2 (JH2domain-pseudokinase), sequence (P29597 556-888): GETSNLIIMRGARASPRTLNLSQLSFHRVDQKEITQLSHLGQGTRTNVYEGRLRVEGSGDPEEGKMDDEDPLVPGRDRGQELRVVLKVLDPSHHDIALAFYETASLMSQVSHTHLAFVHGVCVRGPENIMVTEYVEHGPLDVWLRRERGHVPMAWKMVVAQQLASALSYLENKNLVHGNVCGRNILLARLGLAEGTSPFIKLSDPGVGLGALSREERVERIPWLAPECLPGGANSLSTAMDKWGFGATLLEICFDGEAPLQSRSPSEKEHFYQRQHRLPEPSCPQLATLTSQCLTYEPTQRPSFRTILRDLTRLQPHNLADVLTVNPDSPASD

Q: For `CNc1cc(-c2cn([C@@H]3CCC[C@H]3OC)c3ncccc23)nc2c(C(=O)N[C@H]3CC[C@H]3O)cnn12` [I-1246, N-((1S,2R)-2-hydroxycyclobutyl)-5-(1-((1R,2R)-2-methoxycyclopentyl)-1H-pyrrolo[2,3-b]pyridin-3-yl)-7-(methylamino)pyrazolo[1,5-a]pyrimidine-3-carboxamide], which Kd is on record?
A: 0.2 to 1 nM

Q: With `CNc1cc(-c2cn(CCCO)c3ncccc23)nc2c(C(=O)N[C@H]3CC[C@@H]3OC)cnn12` [I-1300] as the molecule, how does the Kd read?
A: 1 to 10 nM

Q: Which Kd does the source give for `CNc1cc(-c2cn(C3CCOCC3)c3ncccc23)nc2c(C(=O)N[C@H]3COC[C@H]3O)cnn12` [I-1308] here?
A: > 10 nM

Q: Which Kd does the source give for `CNc1cc(Nc2cccn([C@H]3CCCOC3)c2=O)nc2c(C(=O)N[C@@H]3C[C@H]3OC)cnn12` [I-1248] here?
A: < 0.2 nM

Q: With `CNc1cc(Nc2cccn([C@H]3C[C@@H]3F)c2=O)nc2c(C(=O)N[C@@H]3CC[C@H](O)C3)cnn12` [I-1202] as the molecule, how does the Kd read?
A: 1 to 10 nM

Q: `CNc1cc(Nc2cccn([C@H]3CCC[C@H](O)C3)c2=O)nc2c(C(=O)N[C@H]3CC[C@@H]3OC)cnn12` [I-1396] was tested. Which Kd did it give?
A: 0.2 to 1 nM

Q: With `CNc1cc(-c2cn([C@H]3CCN(CCF)C3)c3ncccc23)nc2c(C(=O)NC3CC3)cnn12` [I-1363] as the molecule, how does the Kd read?
A: 0.2 to 1 nM

Q: For `CNc1cc(Nc2cccn([C@@H]3C[C@H]3OC)c2=O)nc2c(C(=O)NC3CC3)cnn12` [I-1227], which Kd is on record?
A: < 0.2 nM

Q: `CNc1cc(Nc2cccn([C@H]3CCC[C@@H](C#N)C3)c2=O)nc2c(C(=O)NC3CC3)cnn12` [I-1361] was tested. Which Kd did it give?
A: 0.2 to 1 nM

Q: How did the Kd turn out when `CNc1cc(Nc2cccn(C(C)C)c2=O)nc2c(C(=O)N[C@@H]3CCC[C@@](C)(OC)C3)cnn12` [I-1235] was run?
A: < 0.2 nM

Q: Which Kd does the source give for `CNc1cc(Nc2cccn3ccnc23)nc2c(C(=O)N[C@@H]3COC[C@@H]3O)cnn12` [I-1261] here?
A: 0.2 to 1 nM

Q: How did the Kd turn out when `CNc1cc(Nc2cccn3ccnc23)nc2c(C(=O)N[C@H]3COC[C@H]3O)cnn12` [I-1313] was run?
A: > 10 nM

Q: How did the Kd turn out when `CNc1cc(Nc2cccn(C3CC(F)(F)C3)c2=O)nc2c(C(=O)N[C@H]3COC[C@H]3O)cnn12` [I-1206] was run?
A: 1 to 10 nM

Q: With `CNc1cc(Nc2cccn(C3CCOCC3)c2=O)nc2c(C(=O)N[C@@H]3CC[C@@H](OC)C3)cnn12` (stereo in doubt) [I-1334, N-(3-methoxycyclopentyl)-7-(methylamino)-5-((2-oxo-1-(tetrahydro-2H-pyran-4-yl)-1,2-dihydropyridin-3-yl)amino)pyrazolo[1,5-a]pyrimidine-3-carboxamide] as the molecule, how does the Kd read?
A: < 0.2 nM

Q: Which Kd does the source give for `CNc1cc(Nc2cccn(C3CCCCC3)c2=O)nc2c(C(=O)N[C@H]3COC[C@H]3O)cnn12` [I-1349] here?
A: 1 to 10 nM

Q: `CNc1cc(Nc2cccn(C(C)C)c2=O)nc2c(C(=O)N[C@H]3CC[C@@H](O)C3)cnn12` [I-1265] was tested. Which Kd did it give?
A: 1 to 10 nM

Q: How did the Kd turn out when `CNc1cc(Nc2cccn([C@H]3CCC[C@@H](C#N)C3)c2=O)nc2c(C(=O)NC3CC3)cnn12` [I-1245] was run?
A: 0.2 to 1 nM

Q: With `CNc1cc(Nc2cccn([C@H]3CCC[C@H]3O)c2=O)nc2c(C(=O)N[C@@H]3CC[C@H]3OC)cnn12` [I-1372] as the molecule, how does the Kd read?
A: 0.2 to 1 nM

Q: Which Kd does the source give for `CNc1cc(-c2cn([C@@H]3CCCOC3)c3ncccc23)nc2c(C(=O)N[C@H]3COC[C@H]3O)cnn12` [I-1250, N-(4-hydroxytetrahydrofuran-3-yl)-7-(methylamino)-5-(1-((R)-tetrahydro-2H-pyran-3-yl)-1H-pyrrol[2,3-b]pyridin-3-yl)pyrazol[1,5-a]pyrimidine-3-carboxamide] here?
A: 0.2 to 1 nM

Q: Which Kd does the source give for `CNc1cc(-c2cn(C3CCOCC3)c3ncccc23)nc2c(C(=O)N[C@H]3CC[C@@H]3OC)cnn12` [I-1329] here?
A: > 10 nM

Q: For `CNc1cc(Nc2cccn([C@H]3CC[C@@H]3O)c2=O)nc2c(C(=O)N[C@@H]3CCC[C@@H](OC)C3)cnn12` [I-1252], which Kd is on record?
A: < 0.2 nM

Q: `CNc1cc(-c2cn(C3CCOCC3)c3ncccc23)nc2c(C(=O)N[C@H]3CC[C@@H]3O)cnn12` [I-1405] was tested. Which Kd did it give?
A: 1 to 10 nM

Q: For `CNc1cc(Nc2cccn(C3CCCCC3)c2=O)nc2c(C(=O)N[C@@H]3COC[C@@H]3O)cnn12` [I-1348], which Kd is on record?
A: < 0.2 nM

Q: Which Kd does the source give for `CCO[C@@H]1CC[C@H]1NC(=O)c1cnn2c(NC)cc(Nc3cccn(-c4ccccn4)c3=O)nc12` [I-1232] here?
A: 0.2 to 1 nM

Q: How did the Kd turn out when `CNc1cc(Nc2cccn(-c3ccc(C)nc3)c2=O)nc2c(C(=O)N[C@H]3CCC[C@H](OC)C3)cnn12` [I-1188] was run?
A: 1 to 10 nM

Q: `CNc1cc(Nc2cccn([C@@H]3CCC[C@@H]3O)c2=O)nc2c(C(=O)N[C@@H]3CC[C@H]3OC)cnn12` [I-1393] was tested. Which Kd did it give?
A: < 0.2 nM

Q: How did the Kd turn out when `CNc1cc(Nc2cccn(C(C)C)c2=O)nc2c(C(=O)N[C@H]3CCC[C@](C)(O)C3)cnn12` [I-1242] was run?
A: < 0.2 nM

Q: `CNc1cc(Nc2cccn([C@@H]3CC[C@@H]3O)c2=O)nc2c(C(=O)N[C@H]3CC[C@@H]3OC)cnn12` [I-1351] was tested. Which Kd did it give?
A: < 0.2 nM

Q: For `CNc1cc(Nc2cccn3ccnc23)nc2c(C(=O)N[C@H]3COC[C@H]3O)cnn12` [I-1262], which Kd is on record?
A: 1 to 10 nM

Q: With `CNc1cc(Nc2cccn([C@@H]3CCCN(CCF)C3)c2=O)nc2c(C(=O)N[C@@H]3CC[C@H]3OC)cnn12` [I-1383] as the molecule, how does the Kd read?
A: 1 to 10 nM

Q: Which Kd does the source give for `CNc1cc(Nc2cccn(C3CC(F)(F)C3)c2=O)nc2c(C(=O)N[C@@H]3CC[C@@H]3O)cnn12` [I-1305] here?
A: 0.2 to 1 nM

Q: For `CNc1cc(Nc2cccnc2OC(C)C)nc2c(C(=O)NC3COC3)cnn12` [I-86], which Kd is on record?
A: > 10 nM

Q: For `CNc1cc(-c2cn([C@H]3CCC[C@@H]3OC)c3ncccc23)nc2c(C(=O)N[C@H]3CC[C@H]3O)cnn12` [I-1223, N-((1S,2R)-2-hydroxycyclobutyl)-5-(1-((1S,2S)-2-methoxycyclopentyl)-1H-pyrrolo[2,3-b]pyridin-3-yl)-7-(methylamino)pyrazolo[1,5-a]pyrimidine-3-carboxamide], which Kd is on record?
A: 0.2 to 1 nM

Q: `CNc1cc(Nc2cccn3ccnc23)nc2c(C(=O)N[C@H]3CCC[C@]3(C)O)cnn12` [I-1239] was tested. Which Kd did it give?
A: < 0.2 nM

Q: For `CNc1cc(Nc2cccn([C@@H]3CCC[C@H](O)C3)c2=O)nc2c(C(=O)N[C@H]3CC[C@@H]3OC)cnn12` [I-1191], which Kd is on record?
A: < 0.2 nM

Q: With `CNc1cc(Nc2cccn([C@H]3CCN(CCF)C3)c2=O)nc2c(C(=O)N[C@@H]3CC[C@H]3OC)cnn12` [I-1380] as the molecule, how does the Kd read?
A: < 0.2 nM

Q: Which Kd does the source give for `CNc1cc(Nc2cccn([C@H]3CCCN(CCF)C3)c2=O)nc2c(C(=O)N[C@H]3CC[C@@H]3OC)cnn12` [I-1215] here?
A: < 0.2 nM

Q: With `CNc1cc(Nc2cccn3ccnc23)nc2c(C(=O)N[C@@H]3CCC[C@@]3(C)O)cnn12` [I-1238] as the molecule, how does the Kd read?
A: < 0.2 nM

Q: With `CNc1cc(Nc2cccn(C3CC(F)(F)C3)c2=O)nc2c(C(=O)N[C@@H]3CCC[C@@](C)(O)C3)cnn12` [I-1208] as the molecule, how does the Kd read?
A: 1 to 10 nM

Q: With `CNc1cc(Nc2cccn([C@@H]3CC[C@H]3O)c2=O)nc2c(C(=O)N[C@@H]3CCC[C@@H](OC)C3)cnn12` [I-1253] as the molecule, how does the Kd read?
A: > 10 nM

Q: Which Kd does the source give for `CNc1cc(-c2cn([C@@H]3CCN(CCF)C3)c3ncccc23)nc2c(C(=O)NC3CC3)cnn12` [I-1367, (R)—N-cyclopropyl-5-(1-(1-(2-fluoroethyl)pyrrolidin-3-yl)-1H-pyrrolo[2,3-b]pyridin-3-yl)-7-(methylamino)pyrazolo[1,5-a]pyrimidine-3-carboxamide] here?
A: < 0.2 nM

Q: With `CNc1cc(Nc2cccn([C@@H]3CCCOC3)c2=O)nc2c(C(=O)N[C@H]3C[C@@H]3OC)cnn12` [I-1270] as the molecule, how does the Kd read?
A: 1 to 10 nM

Q: For `CNc1cc(Nc2cccn([C@H]3CC[C@@H]3O)c2=O)nc2c(C(=O)N[C@@H]3CC[C@H]3OC)cnn12` [I-1384], which Kd is on record?
A: 0.2 to 1 nM

Q: With `CNc1cc(Nc2cccn(C3CC(F)(F)C3)c2=O)nc2c(C(=O)N[C@H]3CC[C@H]3O)cnn12` [I-1306] as the molecule, how does the Kd read?
A: 1 to 10 nM

Q: With `CNc1cc(Nc2cccn(C3CCOCC3)c2=O)nc2c(C(=O)N[C@@H]3CCC[C@@H](OC)C3)cnn12` [I-1297] as the molecule, how does the Kd read?
A: 0.2 to 1 nM

Q: How did the Kd turn out when `CNc1cc(-c2cn([C@H]3CCCOC3)c3ncccc23)nc2c(C(=O)N[C@@H]3CC[C@H]3OC)cnn12` [I-1282] was run?
A: 1 to 10 nM

Q: For `CNc1cc(Nc2cccn(-c3ccc(C)nc3)c2=O)nc2c(C(=O)N[C@H]3CCC[C@H](OC)C3)cnn12` [I-1289], which Kd is on record?
A: 1 to 10 nM

Q: How did the Kd turn out when `CNc1cc(Nc2cccn([C@H]3CCC[C@@H](O)C3)c2=O)nc2c(C(=O)N[C@@H]3CC[C@H]3OC)cnn12` [I-1192] was run?
A: < 0.2 nM

Q: `CNc1cc(Nc2cccn(C3CCOCC3)c2=O)nc2c(C(=O)N[C@H]3CC[C@@H](O)C3)cnn12` [I-1263] was tested. Which Kd did it give?
A: < 0.2 nM

Q: `CNc1cc(Nc2cccn([C@H]3CC[C@H]3O)c2=O)nc2c(C(=O)N[C@H]3CC[C@@H]3OC)cnn12` [I-1410] was tested. Which Kd did it give?
A: < 0.2 nM

Q: With `CNc1cc(Nc2cc3cccnc3n2C2CC2)nc2c(C(=O)N[C@@H]3CC[C@H]3OC)cnn12` [I-1324] as the molecule, how does the Kd read?
A: < 0.2 nM

Q: How did the Kd turn out when `CNc1cc(Nc2cccn(C3CCOCC3)c2=O)nc2c(C(=O)N[C@H]3CCC[C@H](O)C3)cnn12` [I-1225] was run?
A: < 0.2 nM
